Results published in patent US10729749B2, “Neurodegenerative disorders” (priority 2014, dated 2020).
Ends that are not written are not given here.

Tests used:
PC12 cells [1] = test: Acetylcholinesterase activity assay (AChE release from PC12 cells, Ellman reagent); type: cell-based; details: T30 5 μM + small peptide 0.5 μM; % AChE release compared to untreated control
Protocol: AChE activity was measured using the Ellman reagent that measures the presence of thiol groups as a result of AChE activity. Cells were plated the day before the experiment as for the cell viability assay. […] The Ellman reagent was prepared as a mixture of the 3 solutions in a ratio 33(A):3(B):4(C). Absorbance measurements were taken at regular intervals (3, 10, 30 and 60 mins) across experiments at 405 nm.

basal forebrain = test: VSDI of evoked responses in basal forebrain brain slices; design: species or system rat; details: T30 2 μM & peptide 4 μM in perfusate; 30V electrical stimulation
Protocol: Coronal rat brain slices were prepared according to the procedure described in (Badin et al., 2013) but this time containing basal forebrain (+0.70 and −0.26 millimetres (mm) from bregma (Paxinos and Watson, 1998). Optical imaging using voltage-sensitive dyes was then performed as previously described (Badin et al., 2013, Neuropharmacology. 73C:10-18).
VSDI data were recorded in 4×4 mm 2-dimensional images, equivalent to 100×100 pixels—each pixel being 40×40 micrometres (μm), from which critical data were extracted. VSDI data was not gathered throughout the experimental run, but in fact was recorded in discrete periods of time 15 minutes in length. The inter-stimulus interval (ISI) between stimulations was 28 seconds and therefore, every recording epoch consisted of 32 successive stimulations. The data from all 32 stimulations were then averaged into a single file for each experimental condition and analysed using a VSDI data analysis toolbox specially made for MatLab (Bourgeois et al., 2014, PLoS One. 9:e108686). […] In order to quantify VSDI data however, the area under the curve was calculated (summed fluorescence fractional change, FIG. 11-22) between the moment of stimulation (t=0) and 280 ms after that; this method of quantification takes into account all the components of the immediate and longer-latency response. […]

PC12 cells [2] = test: Value coefficient (AChE release vs PC12 cell viability) and filter selection; type: cell-based
Text: AChE release vs PC12 cell viability (for which there is a significant negative correlation); • 2. In silico binding to the allosteric site of the α7 nicotinic-receptor; • 3. Calcium influx into PC12 cells; and • 4. Peptide size.

PC12 cells [3] = test: Calcium fluorometry (Fluo-8, acetylcholine-induced calcium influx); type: cell-based; design: Calcium: scale not given here
Text: A final criterion used to determine active peptides is the amount of calcium influx into PC12 cells caused by the peptide. The calcium influx value can be calculated as described in the methods section. The calcium value corresponds to the result from the experiment when applying T30 or Aβ alone or in conjunction with the small peptides. The control value for these experiments is based on the calcium influx induced by acetylcholine alone. Preferably, the peptide, derivative or analogue thereof has a calcium influx value of less than 120, and more preferably a value of 97-120.
PC12 cells are plated in 200 μl of complete growth medium the day before the experiment in 96 well plates. On the day of the experiment, the Fluo-8 solution (Abcam) is prepared (as per provider protocol). Subsequently, 100 μl of growth medium is removed and 100 μl of Fluo-8 solution is added. Treatments with T30 or Aβ in conjunction with NBP-14 or small peptides are added and incubated for 30 minutes in the incubator and 30 minutes room temperature.
After 1 hour, the plate is placed in the fluorescence plate reader (Fluostar). Before reading the fluorescence, acetylcholine (ACh) 100 μM is prepared and placed in the Fluostar injector. For each well, the reading will be formed by a basal fluorescence followed by acetylcholine injection that will induce an increase of calcium via nicotinic receptors. The effects of the peptides are then evaluated.

[4] = Cell viability assay (Cell Counting Kit-8); type: cell-based; details: T30 5 μM + small peptide 0.5 μM; % PC12 cell viability compared to untreated control;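 note: PC12 cells in 96-well plates, WST-8 turned into formazan by cellular dehydrogenases, absorbance read at 450 nm after 2 h with the reagent, signal proportional to living cell number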
Text: (§1) A Cell Counting Kit-8 (CCK-8) was used as an improvement of the SRB technique used before. By utilizing the highly water-soluble tetrazolium salt WST-8, CCK-8 produces a water-soluble formazan dye upon reduction in the presence of an electron carrier. WST-8 is reduced by dehydrogenases in cells to give a yellow colored product (formazan), which is soluble in the tissue culture medium. The amount of the formazan dye generated by the activity of dehydrogenases in cells is directly proportional to the number of living cells. PC12 cells are plated in 200 μl of complete growth medium the day before the experiment in 96 well plates. […] Subsequently, 100 μl of growth medium is removed and 10 μl of CCK-8 (Cell Counting Kit-8) solution is added. The plate is incubated for 2 hours in the incubator and then placed in the absorbance plate reader. The absorbance must be measured at 450 nm.

PC12 cells [5] = test: Cell viability assay (Cell Counting Kit-8); type: cell-based; details: toxic peptide alone; compared to untreated control;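 note: PC12 cells in 96-well plates, WST-8 turned into formazan by cellular dehydrogenases, absorbance read at 450 nm after 2 h with the reagent, signal proportional to living cell number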
Text: as §1

rat brain slices = details: inventors' previous work, cited from earlier work
cells = details: inventors' previous work; cited from earlier work
α7 nicotinic-receptor = α7 nicotinic-receptor (Homo sapiens, UniProt P36544); details: inventors' previous work; cited from earlier work
α7 nicotinic-receptor, sequence (P36544 23-502): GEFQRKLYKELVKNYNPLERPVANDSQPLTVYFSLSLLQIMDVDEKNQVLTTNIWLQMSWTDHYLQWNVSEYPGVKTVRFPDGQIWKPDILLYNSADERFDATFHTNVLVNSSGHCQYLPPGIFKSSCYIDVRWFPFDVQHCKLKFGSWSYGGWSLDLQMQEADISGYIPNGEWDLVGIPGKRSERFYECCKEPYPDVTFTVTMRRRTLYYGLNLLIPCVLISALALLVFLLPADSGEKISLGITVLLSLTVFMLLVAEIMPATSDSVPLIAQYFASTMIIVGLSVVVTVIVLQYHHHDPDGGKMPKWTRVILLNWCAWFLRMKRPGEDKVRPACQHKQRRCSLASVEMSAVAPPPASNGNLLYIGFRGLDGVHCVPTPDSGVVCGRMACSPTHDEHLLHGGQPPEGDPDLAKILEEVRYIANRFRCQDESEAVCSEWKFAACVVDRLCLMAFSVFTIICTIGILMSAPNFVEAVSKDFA

Substance: KAEFHR [NBP-603, KAEFHR]
- AChE (PC12 cells [1]): 96.06%
- reversal of T30-induced changes in evoked responses (basal forebrain): some significant effect in reversing the changes induced by T30
- Value AChE/Viability (PC12 cells [2]; T30 5 μM + small peptide 0.5 μM, 1.0 to 1.1 = protective, control = 1): 1.01
- neuroprotective agent against T30 when all four filters are taken into consideration (PC12 cells [2]; filters: value coefficient, in silico binding, calcium influx, peptide size): neuroprotective agents against T30
- Calcium (PC12 cells [3]; T30 + small peptide, calcium influx value, control based on acetylcholine alone): 119.86
- dose-dependent effect on calcium potentiation against T30 (PC12 cells [3]; dose-dependent experiments, FIGS. 8 and 9): protect against T30 effects
- viability [4]: 94.8%

Substance: KAEFHRWSSYMVHWKNQFDHYSKQDRCSDL [T30, reference compound]
- value coefficient x (PC12 cells [2]; toxic peptide alone, x>1.1 means toxicity): 2.28
- % PC12 cell viability (PC12 cells [5]): 74.309%

Substance: NBP14: cyclic peptide based on T14 sequence AEFHRWSSYMVHWK, cyclated via the terminal Alanine and Lysine residues (head-to-tail cyclised; listed as Homo sapiens)
- reversal of T30-induced changes in evoked responses (basal forebrain): significantly reverse any kind of change induced by T30
- effect on Ca2+ concentrations (rat brain slices; given alone): no significant effects on Ca^2+ concentrations in rat brain slices
- effect on β-amyloid action on Ca2+ concentrations (rat brain slices): blocks the effects of β-amyloid
- compensatory AChE release (cells): blocks compensatory AChE release induced by the toxicity of linear T14 and T30
- protection of cells from toxicity (cells): protect cells from linear T14, T30 and β-amyloid toxicity
- action at the α7 nicotinic-receptor (α7 nicotinic-receptor): true antagonist of the α7 nicotinic-receptor
